Tests used:
[1] = molecular target: T1, high affinity transport of 3H-L-glutamate into synaptosomes (Rattus norvegicus, UniProt P31596); experiment: Synaptosomal uptake of 3H-L-glutamate; format: biochemical; conditions: 10 μM 3H-L-glutamate; for inhibition of glutamate transport (in words): isomers at similar concentrations (20 μM)
T1 construct: Synaptosomes were prepared by the procedure of Booth et al; from tissue; host or cells: brain synaptosomes (Ficoll/sucrose gradient)
Description: Synaptosomal uptake of ^3 H-L-glutamate (10 μM) was followed at 37° C. in the presence and absence of 20 μM PDC isomers. The curves shown are from representative experiments (n=2-4 rate determinations) and are reported as mean ±SD. Transport rates were determined by linear regression analysis and have been corrected for background and non-specific uptake. The effect of the PDC isomers and is reported as % of control transport rate ±SD (n=8-16 rate determinations).
(§1) The Synaptosomes were prepared by the procedure of (a) Booth, R. F. G.; Clark, J. B., Biochem J. 176, 365 (1978) and assayed for synaptosomal uptake as described by (b) Kuhar, M. M.; Zarbin, M. J., Neurochem 31, 251 (1978), both which are incorporated by reference herein. The binding specificities of the four PDC isomers were determined by testing both their ability to inhibit the high affinity transport of ^3 H-L-glutamate into synaptosomes and to block the binding of radioligands to each of the three receptor sites in a synaptic plasma membrane preparation (SPM) (Synaptic plasma membranes were prepared and NMDA receptor binding quantified as described by Monaghan, D. T.; Cotman, C. W., Proc. Nat. Acad. Sci. U.S.A. 83, 7532 (1986) incorporated by reference herein). When included in the ^3 H-L-glutamate uptake assay, as represented in FIG. 3, at only a 2-fold excess relative to L-glutamate (10 μM of ^3 H-L-glutamate vs. 20 μM of 7), the L-trans-2,4-PDC isomer reduced the rate of synaptosomal transport from control levels of 1.13 nmol min^-1 mg-protein^-1 to 0.16 nmol min^-1 mg-protein^-1. […] This selective inhibition by L-trans-2,4-PDCclearly delineates a preferred configurational and/or conformational relationship for binding to the glutamate uptake protein.
Synaptosomes were prepared by the procedure of Booth et al., (Biochem J. 176:365 (1978) incorporated by reference herein), using Ficoll/sucrose gradient centrifugation. Uptake of ^3 H-L-glutamate was followed essentially as described by Kuhar and Zarbin (J. Neurochem 31:[…] (1978) incorporated by reference herein.) Synaptosomes were suspended in a physiological buffer (Krebs-Ringer phosphate buffer) and preincubated at 37° C. for 5 min. The uptake assay was initiated by the addition of ^3 H-L-glutamate (0.1-100 μM). Aliquots were removed at appropriate times (0.5-10 min) and were rapidly filtered on GF/F glass fiber filters. The filters were rapidly washed with 20 volumes of ice cold buffer. Radioactivity present on the filters was determined by liquid scintillation counting. Uptake rates were corrected for both background (i.e., uptake at 0 min) and leakage (i.e., uptake at 0° C.).

[2] = test system: QA receptors; experiment: 3H-AMPA binding to QA receptors in synaptic plasma membranes; set-up: species or system rat; conditions: for ^3 H-AMPA binding to QA receptors, % of Control: diacid 100 μM, % of control binding ± s.d., corrected for nonspecific binding
Description: (§2) To further characterize the pharmacological specificity of the PDC conformers and identify other potential sites at which the transport inhibitor could bind, the compounds were tested for their ability to inhibit the binding of ^3 H-L-glutamate to NMDA receptors, ^3 H-KA binding to KA receptors, and ^3 H-AMPA (α-amino-3-hydroxy-5-methylisoxazole-4-propionic acid) binding to QA receptors. Binding to kainate receptors was quantified by the procedures of (a) Simon, J. R.; Contrera, J. F.; Kuhar, M. J., J. Neurochem 26, 141 (1976), and (b) London, E. D.; Coyle, J. T.; Molec. Pharm. 15, 492 (1979) which are incorporated by reference herein. Binding to quisqualate receptors (QA) were quantified as described by (c) Honore, T.; Lauridsen, J.; Krogsgaard-Larsen, P. J., Neurochem 1982, 38, 173, which are incorporated by reference herein. […] This lack of interaction with any of the excitatory receptors is in direct contrast with its potent inhibition of transport and identifies L-trans-2,4-PDC as a specific probe of the L-glutamate transport system.
(§3) Synaptic plasma membrane (SPMS) were prepared as previously described (Monaghan, D. T.; Cotman, C. W., Proc. Nat. Acad. Sci. U.S.A. 83:7532 (1986) incorporated by reference herein.) Briefly, male Sprague-Dawley rats (200 g) were decapitated, their forebrains were rapidly removed, and the brain tissue homogenized in 0.32M sucrose. Following differential centrifugation, a membrane fraction enriched in synapses, but low in myelin and mitochondria, was obtained. This membrane fraction was washed three times with […] Tris-acetate buffer, pH 7.2, and diluted into the appropriate assay buffer to about 200 μg protein/ml.
(§4) Binding to NMDA, KA, and QA receptors were quantified with ^3 H-L-glutamate, ^3 H-KA, and ^3 H-AMPA respectively. The binding assays were carried out using optimally selective conditions of time, temperature, and buffer for each of the three receptor classes. ^3 H-L-Glutamate binding was quantified under conditions that selectively label NMDA receptors. The SPMs were incubated with ^3 H-L-glutamate (10 nM, 50.9 Ci/mmol) in 50 mM Tris-acetate, pH 7.0, at 4° C. for 30 minutes. Non-specific binding was determined by the inclusion of 500 μM L-glutamate. KA receptors were quantified as previously described. ^3 H-KA (10 nM, 60 Ci/mmol) binding was determined in 50 mM Tris-citrate buffer, pH 7.0, at 4° C. for 30 min. Non-specific binding was determined by the inclusion of 100 μM unlabeled KA. QA receptors were measured with ^3 H-AMPA binding as described by Honore et al. J. Neurochem. 38:173-178 (1982). Essentially, 3 H-AMPA (10 nM, 27.6 Ci/mmol) binding is quantified in 50 mM Tris-acetate buffer, pH 7.2, containing 100 mM KSCN for 30 minutes at 4° C. Non-specific binding was determined by the inclusion of 100 μM quisqualic acid. In the inhibition studies, the conformationally defined analogues were included in the assay mixture at the appropriate concentrations (0.1-200 μM). The assays (total volume, 1.08 mL) were initiated by the addition of radiolabel and terminated by centrifugation (Beckman Microfuge, top speed, 3 min). Unbound radioligand in the supernatant was removed by suction and the radioactivity in the pellet quantified by liquid scintillation counting. All of the binding studies were carried out as 2 sets of triplicates within a single experiment and each experiment was repeated at least 3 times.

[3] = test system: KA receptors; experiment: 3H-KA binding to KA receptors in synaptic plasma membranes; set-up: species or system rat; conditions: for ^3 H-KA binding to KA receptors, % of Control: diacid 100 μM, % of control binding ± s.d., corrected for nonspecific binding
Description: as §2, §3, §4

[4] = test system: NMDA receptors; experiment: 3H-L-glutamate binding to NMDA receptors in synaptic plasma membranes; set-up: species or system rat; conditions: for ^3 H-L-GLU binding to NMDA receptors, % of Control: % of control binding ± s.d., corrected for nonspecific binding; for inhibition of ^3 H-L-glutamate binding to the NMDA receptor (in words): as reported in Table 1
Description: as §1, §2, §3
Binding to NMDA, KA, and QA receptors were quantified with ^3 H-L-glutamate, ^3 H-KA, and ^3 H-AMPA respectively. The binding assays were carried out using optimally selective conditions of time, temperature, and buffer for each of the three receptor classes. ^3 H-L-Glutamate binding was quantified under conditions that selectively label NMDA receptors. The SPMs were incubated with ^3 H-L-glutamate (10 nM, 50.9 Ci/mmol) in 50 mM Tris-acetate, pH 7.0, at 4° C. for 30 minutes. Non-specific binding was determined by the inclusion of 500 μM L-glutamate. KA receptors were quantified as previously described. ^3 H-KA (10 nM, 60 Ci/mmol) binding was determined in 50 mM Tris-citrate buffer, pH 7.0, at 4° C. for 30 min. Non-specific binding was determined by the inclusion of 100 μM unlabeled KA. QA receptors were measured with ^3 H-AMPA binding as described by Honore et al. J. Neurochem. 38:173-178 (1982). […]

T1 sequence (P31596 whole entry): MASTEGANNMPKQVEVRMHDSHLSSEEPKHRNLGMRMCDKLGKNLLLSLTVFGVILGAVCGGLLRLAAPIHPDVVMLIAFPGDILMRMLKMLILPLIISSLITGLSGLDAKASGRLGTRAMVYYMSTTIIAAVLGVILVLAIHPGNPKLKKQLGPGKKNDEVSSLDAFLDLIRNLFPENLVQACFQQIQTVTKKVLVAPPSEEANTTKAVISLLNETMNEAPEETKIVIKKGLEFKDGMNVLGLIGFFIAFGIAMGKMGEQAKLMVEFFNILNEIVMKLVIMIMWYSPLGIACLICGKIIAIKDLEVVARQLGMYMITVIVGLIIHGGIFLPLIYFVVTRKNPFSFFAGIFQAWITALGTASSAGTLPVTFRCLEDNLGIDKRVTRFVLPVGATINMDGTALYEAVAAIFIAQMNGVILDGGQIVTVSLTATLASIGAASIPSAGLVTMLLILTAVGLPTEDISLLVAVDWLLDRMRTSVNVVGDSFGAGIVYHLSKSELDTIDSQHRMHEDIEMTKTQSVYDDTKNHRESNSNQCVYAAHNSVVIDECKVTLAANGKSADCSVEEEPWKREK

O=C(O)[C@@H]1CN[C@H](C(=O)O)C1 [Diacid 4, cis-4-Carboxy-L-proline]
inhibition of glutamate transport (in words) [1]: substantially less effective
^3 H-AMPA binding to QA receptors, % of Control [2]: 102 ± 12 % of Control
^3 H-KA binding to KA receptors, % of Control [3]: 100 ± 12 % of Control
^3 H-L-GLU binding to NMDA receptors, % of Control ([4]; diacid 100 μM): 89 ± 13 % of Control

O=C(O)[C@H]1CN[C@H](C(=O)O)C1 [Diacid 7, trans-4-Carboxy-L-proline]
rate of synaptosomal transport ([1]; 20 μM compound, 37° C., control level 1.13): 0.16 nmol min^-1 mg-protein^-1
inhibition at 20 µM ([1]; 20 μM compound, read-out: reduction in the rate of uptake): > 80%
inhibition of glutamate transport (in words) [1]: potent inhibitor
inhibition of radioligand binding to QA receptors (in words) ([2]; compound in 10^4 -fold excess): did not significantly inhibit
^3 H-AMPA binding to QA receptors, % of Control [2]: 109 ± 13 % of Control
inhibition of radioligand binding to KA receptors (in words) ([3]; compound in 10^4 -fold excess): did not significantly inhibit
^3 H-KA binding to KA receptors, % of Control [3]: 102 ± 10 % of Control
inhibition of ^3 H-L-glutamate binding to the NMDA receptor (in words) [4]: did not significantly inhibit
^3 H-L-GLU binding to NMDA receptors, % of Control ([4]; diacid 100 μM): 87 ± 10 % of Control

O=C(O)[C@@H]1CN[C@@H](C(=O)O)C1 [Diacid 11, trans-4-Carboxy-D-proline]
inhibition of glutamate transport (in words) [1]: substantially less effective
^3 H-AMPA binding to QA receptors, % of Control [2]: 108 ± 11 % of Control
^3 H-KA binding to KA receptors, % of Control [3]: 92 ± 6 % of Control
inhibition of ^3 H-L-glutamate binding to the NMDA receptor (in words) [4]: weakly inhibiting
^3 H-L-GLU binding to NMDA receptors, % of Control ([4]; diacid 100 μM): 95 ± 12 % of Control

O=C(O)[C@H]1CN[C@@H](C(=O)O)C1 [Diacid 14, cis-4-Carboxy-D-proline]
inhibition of glutamate transport (in words) [1]: substantially less effective
^3 H-AMPA binding to QA receptors, % of Control [2]: 110 ± 9 % of Control
^3 H-KA binding to KA receptors, % of Control [3]: 101 ± 6 % of Control
^3 H-L-GLU binding to NMDA receptors, % of Control ([4]; diacid 20 μM): 76 ± 5 % of Control
^3 H-L-GLU binding to NMDA receptors, % of Control ([4]; diacid 100 μM): 38 ± 12 % of Control

Reference: patent publication US5942537A, “Method of inhibiting the transport of L-glutamate to treat CNS disorders” (The Regents of the University of California, priority 1993, dated 1999)
